Laboratory results reported in the supplement of paper PMC9912026.

System: A375_NRAS_Q61K_DOXind
Assay: pERK immunofluorescence relative to uninduced (no doxycycline), no-drug control; higher = more ERK phosphorylation (less pathway inhibition)
Details: drug treatment time 24 h, doxycycline pre-induction time 24 h, vemurafenib background 0 µM
Experimental: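 pERK was measured by immunofluorescence with FLAG-negative cells excluded. Averages of 2 technical replicates.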

CCCS(=O)(=O)Nc1ccc(F)c(C(=O)c2c[nH]c3ncc(-c4ccc(Cl)cc4)cc23)c1F [Vemurafenib] + O=C(c1ccc(F)c(F)c1Nc1ccc(I)cc1F)N1CC(O)([C@@H]2CCCCN2)C1 [Cobimetinib]
pERK immunofluorescence
Details | drug B concentration 0 µM | drug B concentration 0.0001 µM | drug B concentration 0.0003162 µM | drug B concentration 0.001 µM | drug B concentration 0.00316228 µM | drug B concentration 0.01 µM | drug B concentration 0.0316228 µM | drug B concentration 0.1 µM | drug B concentration 0.316228 µM | drug B concentration 1 µM
drug A concentration 0 µM, doxycycline 0 ng/mL | – | 0.771 | 0.877 | 0.692 | 0.269 | 0.0826 | 0.0415 | 0.0295 | 0.0213 | 0.0214
drug A concentration 0 µM, doxycycline 1000 ng/mL | – | 1.26 | 1.36 | 1.23 | 1.11 | 1.03 | 0.769 | 0.29 | 0.0675 | 0.0264
drug A concentration 0.000316 µM, doxycycline 0 ng/mL | 0.894 | 0.847 | 0.89 | 0.663 | 0.253 | 0.078 | 0.0417 | 0.0283 | 0.023 | 0.0216
drug A concentration 0.000316 µM, doxycycline 1000 ng/mL | 1.23 | 1.24 | 1.3 | 1.22 | 1.11 | 1.06 | 0.763 | 0.322 | 0.073 | 0.0271
drug A concentration 0.001 µM, doxycycline 0 ng/mL | 0.854 | 0.807 | 0.827 | 0.652 | 0.277 | 0.0707 | 0.0373 | 0.0262 | 0.0201 | 0.0201
drug A concentration 0.001 µM, doxycycline 1000 ng/mL | 1.15 | 1.21 | 1.26 | 1.29 | 1.15 | 1.08 | 0.761 | 0.326 | 0.0778 | 0.0269
drug A concentration 0.00316 µM, doxycycline 0 ng/mL | 0.761 | 0.816 | 0.887 | 0.555 | 0.229 | 0.0664 | 0.0382 | 0.0255 | 0.0206 | 0.0196
drug A concentration 0.00316 µM, doxycycline 1000 ng/mL | 1.12 | 1.17 | 1.31 | 1.25 | 1.13 | 1.01 | 0.763 | 0.311 | 0.0715 | 0.0264
drug A concentration 0.01 µM, doxycycline 0 ng/mL | 0.697 | 0.719 | 0.752 | 0.525 | 0.207 | 0.0636 | 0.0366 | 0.0258 | 0.0201 | 0.0203
drug A concentration 0.01 µM, doxycycline 1000 ng/mL | 1.16 | 1.21 | 1.28 | 1.31 | 1.21 | 1.02 | 0.741 | 0.32 | 0.0751 | 0.0284
drug A concentration 0.0316 µM, doxycycline 0 ng/mL | 0.485 | 0.57 | 0.578 | 0.357 | 0.142 | 0.0532 | 0.0338 | 0.0248 | 0.0205 | 0.0197
drug A concentration 0.0316 µM, doxycycline 1000 ng/mL | 1.08 | 1.11 | 1.22 | 1.27 | 1.05 | 0.964 | 0.683 | 0.254 | 0.0677 | 0.0258
drug A concentration 0.1 µM, doxycycline 0 ng/mL | 0.316 | 0.286 | 0.274 | 0.161 | 0.0758 | 0.0428 | 0.0306 | 0.0226 | 0.0207 | 0.0198
drug A concentration 0.1 µM, doxycycline 1000 ng/mL | 1.2 | 1.18 | 1.31 | 1.21 | 1.12 | 1.05 | 0.766 | 0.294 | 0.0731 | 0.0266
drug A concentration 0.316228 µM, doxycycline 0 ng/mL | 0.107 | 0.0916 | 0.1 | 0.0715 | 0.0458 | 0.0352 | 0.0271 | 0.0216 | 0.0197 | 0.019
drug A concentration 0.316228 µM, doxycycline 1000 ng/mL | 1.17 | 1.21 | 1.26 | 1.25 | 1.15 | 1.08 | 0.736 | 0.279 | 0.069 | 0.0251
drug A concentration 1 µM, doxycycline 0 ng/mL | 0.0542 | 0.0554 | 0.0566 | 0.0507 | 0.0389 | 0.0323 | 0.0252 | 0.0202 | 0.019 | 0.0186
drug A concentration 1 µM, doxycycline 1000 ng/mL | 1.12 | 1.21 | 1.32 | 1.26 | 1.15 | 1.06 | 0.675 | 0.212 | 0.0608 | 0.0248
drug A concentration 3.16 µM, doxycycline 0 ng/mL | 0.0469 | 0.0457 | 0.0485 | 0.044 | 0.038 | 0.0293 | 0.0233 | 0.02 | 0.0191 | 0.0188
drug A concentration 3.16 µM, doxycycline 1000 ng/mL | 1.07 | 1.14 | 1.22 | 1.27 | 1.12 | 0.941 | 0.478 | 0.129 | 0.0468 | 0.0219
drug A concentration 10 µM, doxycycline 0 ng/mL | 0.0377 | 0.0388 | 0.0357 | 0.0351 | 0.0307 | 0.0237 | 0.0219 | 0.0199 | 0.019 | 0.0193
drug A concentration 10 µM, doxycycline 1000 ng/mL | 0.905 | 1.01 | 1.04 | 1.02 | 0.868 | 0.553 | 0.145 | 0.0465 | 0.0237 | 0.0194
